Each structure is given as a SMILES string.

Assay [1] has as its system vitamin D-deficient rats. Briefly: Intestinal calcium transport response (method of Martin and DeLuca) in vitamin D-deficient rats. As to conditions: intrajugular, 24 hours after administration, Mean ± SD (N = 4 ~ 6). Format: in vivo.
In assay [2] the test system is human premyeloblast leukemia cells (HL-60). Description: Proliferation-suppression rate of HL-60 cells (Coulter counter, 4 days cultivation). In kind it is cell-based. As to conditions: 96 h, HL-60, 4 days; for inhibition at 0.1 ng/mL: Concn. 0.1 ng/mL; for inhibition at 1 ng/mL: Concn. 1 ng/mL; for inhibition at 10 ng/mL: Concn. 10 ng/mL. The protocol:
An HL-60 cell fluid adjusted to a concentration of 5 x 10^4 cells/ml was incorporated with each of the agents to be tested and cultivated in a carbon dioxide incubator at 37°C for 4 days. After the cultivation, the number of cells was measured by means of a Coulter counter. The percentage of the number thus measured relative to the number of cells in an untreated group was calculated, from which the proliferation-suppression rate was obtained.

For assay [3] the test system is unchanged. Description: NBT reduction (differentiation of HL-60 cells into macrophages). In kind it is cell-based. As to conditions: HL-60, 4 days, control 0.5. The protocol: Thereafter, the cells were smeared onto a slide glass, subjected to Giemsa staining, and the coloration of the cells was examined under a microscope. The number of cells containing intracellular blue-black formazan deposits was measured for 200 cells, and the results were expressed in terms of the percentage of NBT reduction-positive cells.

Assay [4] concerns vitamin D-deficient rats. Description: Bone calcium mobilization response (serum calcium, OCPC method) in vitamin D-deficient rats. Format: in vivo. The following applies: intrajugular, 24 hours after administration, Mean ± SD (N = 4 ~ 6). How it is done:
Blood was collected after 24 hours, and the concentration of calcium in serum was determined by the OCPC (orthocresolphthalein complexon) method.

Where [5] appears, read: dose 50 pmol/100 g body wt., control 2.6 ± 0.27.
[6] abbreviates: dose 650 pmol/100 g body wt., control 2.5 ± 0.30.
[7] abbreviates: dose 50 pmol/100 g body wt., control 4.8 ± 0.29.
Where [8] appears, read: dose 650 pmol/100 g body wt., control 4.8 ± 0.31.

Broadly, the inhibition is the relative decrease from the control value, in per cent. A low value points to a weak effect. As for `C=C1/C(=C\C=C2/CCC[C@]3(C)[C@@H]([C@H](C)CCCC(C)(C)O)CC[C@@H]23)C[C@@H](O)C[C@@H]1O` [1α,25-(OH)2D3, 1α,25-Dihydroxyvitamin D3, reference compound], the “Intestinal calcium transport (Ca [S/M])” value in assay [1] (setting [5]) was 3.4 ± 0.72 Ca [S/M]; in assay [1] (setting [6]) it was 3.6 ± 0.52 Ca [S/M]. In assay [2], this molecule gave an inhibition at 0.1 ng/mL of 6.2%. Moreover, in assay [2], the inhibition at 1 ng/mL came out at 36.1%. This molecule also displayed an inhibition at 10 ng/mL in assay [2] of 72.4%. The NBT reduction rate in assay [3] (Concn. 0.1 µg/ml) was 1.0%; in assay [3] (Concn. 1 µg/ml), 16.5%; in assay [3] (Concn. 10 µg/ml), 56.5%. The Serum calcium in assay [4] (setting [7]) was found to be 5.5 ± 0.30 mg/100 ml; in assay [4] (setting [8]) it was 8.5 ± 0.59 mg/100 ml.

`C=C1/C(=C\C=C2/CCC[C@]3(C)[C@@H]([C@H](C)CC[C@@H](O)C(O)(C(F)(F)F)C(F)(F)F)CC[C@@H]23)C[C@@H](O)C[C@@H]1O` [Compound 6b, 24(R)-26,26,26,27,27,27-hexafluoro-1α,24,25-trihydroxyvitamin-D3]: the “Intestinal calcium transport (Ca [S/M])” value in assay [1] (setting [5]) stood at 8.9 ± 2.81 Ca [S/M]. In assay [2], this molecule came in with an inhibition at 0.1 ng/mL of 50.2%, an inhibition at 1 ng/mL of 84.7% and an inhibition at 10 ng/mL of 90.4%. In addition, the NBT reduction rate in assay [3] (Concn. 0.1 µg/ml) was determined as 32.0%. In assay [3] (Concn. 1 µg/ml), this molecule returned an NBT reduction rate of 79.5%. This molecule showed an NBT reduction rate in assay [3] (Concn. 10 µg/ml) of 83.5%. For the same molecule, the Serum calcium in assay [4] (setting [7]) was found to be 6.3 ± 0.55 mg/100 ml.

As for `C=C1/C(=C\C=C2/CCC[C@]3(C)[C@@H]([C@H](C)CCC(=O)C(O)(C(F)(F)F)C(F)(F)F)CC[C@@H]23)C[C@@H](O)C[C@@H]1O` [Compound 10, la,25-dihydroxy-26,26,26,27,27,27-hexafluoro-24-oxovitamin D3], the “Intestinal calcium transport (Ca [S/M])” value in assay [1] (setting [5]) was 6.5 ± 1.92 Ca [S/M]. In assay [2], this molecule returned an inhibition at 0.1 ng/mL of 45.9%, an inhibition at 1 ng/mL of 78.6% and an inhibition at 10 ng/mL of 89.9%. For the same molecule, the NBT reduction rate in assay [3] (Concn. 0.1 µg/ml) is given as 12.5%. Also, the NBT reduction rate in assay [3] (Concn. 1 µg/ml) was determined as 46.0%. Also, the NBT reduction rate in assay [3] (Concn. 10 µg/ml) was 82.5%. The Serum calcium in assay [4] (setting [7]) is on record as 6.5 ± 0.40 mg/100 ml.

For `C=C1/C(=C\C=C2/CCC[C@]3(C)[C@@H]([C@H](C)C[C@H](O)CC(O)(C(F)(F)F)C(F)(F)F)CC[C@@H]23)C[C@@H](O)C[C@@H]1O` [Compound 28b, 23(S)-26,26,26,27,27,27-hexa-fluoro-1α,23,25-trihydroxyvitamin D3], in assay [1] (setting [6]), the “Intestinal calcium transport (Ca [S/M])” value turned out to be 5.7 ± 1.92 Ca [S/M]. In assay [2], this molecule gave an inhibition at 0.1 ng/mL of 22.8%, an inhibition at 1 ng/mL of 67.3% and an inhibition at 10 ng/mL of 86.9%. The molecule further displayed an NBT reduction rate in assay [3] (Concn. 0.1 µg/ml) of 2.0%. In assay [3] (Concn. 1 µg/ml), the NBT reduction rate is 60.0%. For the same molecule, the NBT reduction rate in assay [3] (Concn. 10 µg/ml) stood at 81.0%. Further, the Serum calcium in assay [4] (setting [8]) was 5.6 ± 0.60 mg/100 ml.

Regarding `C=C1/C(=C\C=C2/CCC[C@]3(C)[C@@H]([C@H](C)C[C@@H](O)CC(O)(C(F)(F)F)C(F)(F)F)CC[C@@H]23)C[C@@H](O)C[C@@H]1O` [Compound 28a, 23(R)-26,26,26,27,27,27-hexa-fluoro-1α,23,25-trihydroxyvitamin D3], the “Intestinal calcium transport (Ca [S/M])” value in assay [1] (setting [6]) turned out to be 6.3 ± 1.88 Ca [S/M]. In assay [2], this molecule registered an inhibition at 0.1 ng/mL of 19.8%, an inhibition at 1 ng/mL of 76.4% and an inhibition at 10 ng/mL of 92.2%. The same molecule came in with an NBT reduction rate in assay [3] (Concn. 0.1 µg/ml) of 6.5%. Further, the NBT reduction rate in assay [3] (Concn. 1 µg/ml) is 60.5%. In addition, the NBT reduction rate in assay [3] (Concn. 10 µg/ml) is given as 80.0%. The Serum calcium in assay [4] (setting [8]) was 7.2 ± 0.67 mg/100 ml.

As for `C=C1/C(=C\C=C2/CCC[C@]3(C)[C@@H]([C@H](C)CC[C@H](O)C(O)(C(F)(F)F)C(F)(F)F)CC[C@@H]23)C[C@@H](O)C[C@@H]1O` [Compound 6a, 24(S)-26,26,26,27,27,27-hexa-fluoro-la,24,25-trihydroxyvitamin D3], in assay [2], the inhibition at 0.1 ng/mL amounted to 30.7%, 1 ng/mL produced 74.9% inhibition and 10 ng/mL produced 83.7% inhibition. For the same molecule, the NBT reduction rate in assay [3] (Concn. 0.1 µg/ml) is recorded as 8.0%. In addition, the NBT reduction rate in assay [3] (Concn. 1 µg/ml) was found to be 55.0%. For the same molecule, the NBT reduction rate in assay [3] (Concn. 10 µg/ml) stood at 86.0%.
